Reference: patent US11926625B2, “HPK1 antagonists and uses thereof” (Nimbus Saturn, Inc., priority 2021, dated 2024)

Biological target: T1, HPK1 (Homo sapiens, UniProt Q92918)
T1 construct: purchased Invitrogen
Assay: HPK1 biochemical enzyme assay (microfluidic mobility shift, Caliper)
Conditions: 1.5 nM HPK1 (Invitrogen), 1 mM ATP, 30 min preincubation, 60 min at RT, top concentration 3 μM; read-out: HPK1 1000UMATP caliper IC50
Method: Example 20. HPK1 Biochemical Enzyme Assay
HPK1 biochemical enzyme assay: HPK1 enzyme inhibition was measured using a microfluidic mobility shift assay. Reactions were performed in a 384-well plate, containing 1.5 nM HPK1 (Invitrogen), in assay buffer (Cama Biosciences; pH 7.4). Test compounds were titrated in ten point curves (top final assay concentration 3 μM), and preincubated with enzyme/substrate mix for 30 min prior to initiation of the reaction by addition of ATP (1 mM final concentration) and substrate (1 μM final concentration; Carna Biosciences) diluted in assay buffer supplemented by MgCl2 (final assay concentration of 5 mM). Following 60 min incubation at RT, the reaction was terminated by addition of 60 μl/well termination buffer (Carna Biosciences) and signal determination using a Caliper EZ Reader (Perkin Elmer, UK).

T1 sequence (Q92918 whole entry): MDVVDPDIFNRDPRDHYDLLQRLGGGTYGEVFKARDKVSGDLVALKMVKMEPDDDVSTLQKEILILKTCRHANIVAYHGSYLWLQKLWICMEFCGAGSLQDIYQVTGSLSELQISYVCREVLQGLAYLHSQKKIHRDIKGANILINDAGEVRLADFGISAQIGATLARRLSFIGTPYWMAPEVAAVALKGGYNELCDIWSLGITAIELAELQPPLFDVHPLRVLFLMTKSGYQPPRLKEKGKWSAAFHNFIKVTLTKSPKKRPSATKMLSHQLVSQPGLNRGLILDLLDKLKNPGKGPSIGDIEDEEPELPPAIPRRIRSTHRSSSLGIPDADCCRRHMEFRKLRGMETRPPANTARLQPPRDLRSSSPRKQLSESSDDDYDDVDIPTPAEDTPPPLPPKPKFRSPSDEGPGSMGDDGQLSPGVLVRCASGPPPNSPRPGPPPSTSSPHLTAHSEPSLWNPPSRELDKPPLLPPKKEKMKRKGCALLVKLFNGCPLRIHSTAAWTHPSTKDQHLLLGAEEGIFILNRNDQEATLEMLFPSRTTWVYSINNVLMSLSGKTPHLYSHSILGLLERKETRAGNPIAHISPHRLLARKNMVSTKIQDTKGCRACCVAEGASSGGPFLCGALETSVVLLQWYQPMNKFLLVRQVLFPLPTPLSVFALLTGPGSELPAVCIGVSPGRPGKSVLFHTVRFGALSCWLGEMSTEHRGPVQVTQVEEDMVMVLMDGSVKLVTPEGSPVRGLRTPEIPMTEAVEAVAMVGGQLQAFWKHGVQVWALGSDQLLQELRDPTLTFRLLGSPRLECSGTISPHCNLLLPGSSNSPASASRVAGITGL

Row | Compound | IC50
1 | Cc1cccc(C#Cc2cc(-c3ccc(Nc4ccc(N5CCN(C)CC5)cn4)c4c3CNC4=O)ccn2)c1 [Compound I-64] | < 1000 nM
2 | CCN1CCN(Cc2ccc(NC(=O)c3ccc(-c4ncc(Nc5ccc(N6CCN(C)CC6)cn5)c5c4CNC5=O)cc3)cc2C(F)(F)F)CC1 [Compound I-24] | < 1000 nM
3 | CN1CCN(c2ccc(Nc3ccc(-c4ccnnc4)c4c3C(=O)NC4)nc2)CC1 [Compound I-59, 7-((5-(4-methylpiperazin-1-yl)pyridin-2-yl)amino)-4-(pyridazin-4-yl)isoindolin-1-one] | < 1000 nM
4 | O=C1NCc2c(-c3c(F)cccc3F)ncc(Nc3ccc(N4CCNCC4)cn3)c21 [Compound I-3, 4-(2,6-difluorophenyl)-7-[(5-piperazin-1-yl-2-pyridyl)amino]-2,3-dihydropyrrolo [3,4-c]pyridin-1-one] | 1000 to 5000 nM
5 | Cn1cnc(-c2ccccc2)c1-c1ccc(Nc2ccc(N3CCNCC3)cn2)c2c1CNC2=O [Compound I-79, 4-(1-methyl-4-phenyl-1H-imidazol-5-yl)-7-((5-(piperazin-1-yl)pyridin-2-yl)amino) isoindolin-1-one] | < 1000 nM
6 | CN1CCN(c2ccc(Nc3cnc(-c4ccnc(N(C)C)c4)c4c3C(=O)NC4)nc2)CC1 [Compound I-58, 4-(2-(dimethylamino)pyridin-4-yl)-7-((5-(4-methylpiperazin-1-yl)pyridin-2-yl)amino)-2,3-dihydro-1H-pyrrolo[3,4-c]pyridin-1-one] | 1000 to 5000 nM
7 | CNc1cc(-c2ccc(Nc3ccc(N4CCN(C)CC4)cn3)c3c2CNC3=O)ccn1 [Compound I-52, 4-[2-(methylamino)-4-pyridyl]-7-[[5-(4-methylpiperazin-1-yl)-2-pyridyl]amino] isoindolin-1-one] | < 1000 nM
8 | O=C1NCc2c(-c3ccncc3)ccc(Nc3ccc(N4CCOCC4)cn3)c21 [Compound I-26, 7-[(5-morpholino-2-pyridyl)amino]-4-(4-pyridyl) isoindolin-1-one] | < 1000 nM
9 | CN1CCN(c2ccc(Nc3ccc(-c4cc(C5CCOCC5)ncn4)c4c3C(=O)NC4)nc2)CC1 [Compound I-69] | < 1000 nM
10 | CN1CCN(c2ccc(Nc3ccc(-c4ccnc(N5CC6CCC(C5)O6)c4)c4c3C(=O)NC4)nc2)CC1 [Compound I-41] | 1000 to 5000 nM
11 | CN1CCN(c2ccc(Nc3ccc(-c4ccnc(C5CCOC5)c4)c4c3C(=O)NC4)nc2)CC1 (centres unmarked) [Compound I-76] | 1000 to 5000 nM
12 | O=C1NCc2c(-n3ccnc3)ccc(Nc3ccc(N4CCNCC4)cn3)c21 [Compound I-81, 4-(1H-imidazol-1-yl)-7-((5-(piperazin-1-yl)pyridin-2-yl)amino) isoindolin-1-one] | 1000 to 5000 nM
13 | CN1CCN(c2ccc(Nc3ccc(-c4ccnc(C5CCCCO5)c4)c4c3C(=O)NC4)nc2)CC1 (centres unmarked) [Compound I-65, 7-((5-(4-methylpiperazin-1-yl)pyridin-2-yl)amino)-4-(2-(tetrahydro 2H-pyran-2-yl)pyridin-4-yl)isoindolin-1-one] | 1000 to 5000 nM
14 | Cc1ncc(-c2ccc(Nc3ccc(N4CCNCC4)cn3)c3c2CNC3=O)n1C [Compound I-72, 4-(1,2-dimethyl-1H-imidazol-5-yl)-7-((5-(piperazin-1-yl)pyridin-2-yl)amino) isoindolin-1-one] | < 1000 nM
15 | CN1CCN(c2ccc(Nc3ccc(-c4ccnc(N5CCOCC5)n4)c4c3C(=O)NC4)nc2)CC1 [Compound I-51, 7-[[5-(4-methylpiperazin-1-yl)-2-pyridyl]amino]-4-(2-morpholinopyrimidin-4-yl)isoindolin-1-one] | 1000 to 5000 nM
16 | O=C1NCc2c(N3CCOCC3)ncc(Nc3ccc(N4CCNCC4)cn3)c21 [Compound I-16, 4-morpholino-7-[(5-piperazin-1-yl-2-pyridyl)amino]-2,3-dihydropyrrolo [3,4-c]pyridin-1-one] | 1000 to 5000 nM
17 | CN1CCN(c2ccc(Nc3ccc(-c4ccnc(OCC(=O)N5CCCCC5)c4)c4c3C(=O)NC4)nc2)CC1 [Compound I-39, 7-[[5-(4-methylpiperazin-1-yl)-2-pyridyl]amino]-4-[2-[2-oxo-2-(1-piperidyl)ethoxy]-4-pyridyl] isoindolin-1-one] | < 1000 nM
18 | Cn1cc(-c2ccc(Nc3ccc(N4CCNCC4)cn3)c3c2CNC3=O)nc1-c1ccccc1 [Compound I-88, 4-(1-methyl-2-phenyl-1H-imidazol-4-yl)-7-((5-(piperazin-1-yl)pyridin-2-yl)amino) isoindolin-1-one] | 1000 to 5000 nM
19 | CNc1nccc(-c2ccc(Nc3ccc(N4CCN(C)CC4)cn3)c3c2CNC3=O)n1 [Compound I-49, 4-[2-(methylamino)pyrimidin-4-yl]-7-[[5-(4-methylpiperazin-1-yl)-2-pyridyl]amino] isoindolin-1-one] | < 1000 nM

Row | Compound | IC50
20 | O=C1NCc2c(-c3ccccc3)ncc(Nc3ccc(N4CCNCC4)cn3)c21 [Compound I-11, 4-phenyl-7-[(5-piperazin-1-yl-2-pyridyl)amino]-2,3-dihydropyrrolo [3,4-c]pyridin-1-one] | 1000 to 5000 nM
21 | CN1CCN(c2ccc(Nc3ccc(-c4cncn4C)c4c3C(=O)NC4)nc2)CC1 [Compound I-54, 4-(3-methylimidazol-4-yl)-7-[[5-(4-methylpiperazin-1-yl)-2-pyridyl]amino] isoindolin-1-one] | < 1000 nM
22 | O=C1NCc2c(-c3ccccn3)ncc(Nc3ccc(N4CCNCC4)cn3)c21 [Compound I-4, 7-[(5-piperazin-1-yl-2-pyridyl)amino]-4-(2-pyridyl)-2,3-dihydropyrrolo [3,4-c]pyridin-1-one] | 1000 to 5000 nM
23 | O=C1NCc2c(-c3cncn3-c3ccccc3)ccc(Nc3ccc(N4CCNCC4)cn3)c21 [Compound I-75, 4-(1-phenyl-1H-imidazol-5-yl)-7-((5-(piperazin-1-yl)pyridin-2-yl)amino) isoindolin-1-one] | < 1000 nM
24 | Cn1cnc(-c2ccc(Nc3ccc(N4CCNCC4)cn3)c3c2CNC3=O)c1-c1ccccc1 [Compound I-77, 4-(1-methyl-5-phenyl-1H-imidazol-4-yl)-7-((5-(piperazin-1-yl)pyridin-2-yl)amino) isoindolin-1-one] | 1000 to 5000 nM
25 | O=C1NCc2c(-c3ccncc3)ccc(Nc3ccc(N4CCC(O)CC4)cn3)c21 [Compound I-28, 7-[[5-(4-hydroxy-1-piperidyl)-2-pyridyl]amino]-4-(4-pyridyl) isoindolin-1-one] | < 1000 nM
26 | O=C1NCc2c(-c3cn(-c4ccccc4)cn3)ccc(Nc3ccc(N4CCNCC4)cn3)c21 [Compound I-80, 4-(1-phenyl-1H-imidazol-4-yl)-7-((5-(piperazin-1-yl)pyridin-2-yl)amino) isoindolin-1-one] | 1000 to 5000 nM
27 | Cn1c(-c2ccc(Nc3ccc(N4CCNCC4)cn3)c3c2CNC3=O)cnc1-c1ccccc1 [Compound I-78, 4-(1-methyl-2-phenyl-1H-imidazol-5-yl)-7-((5-(piperazin-1-yl)pyridin-2-yl)amino) isoindolin-1-one] | < 1000 nM
28 | CN1CCN(c2ccc(Nc3ccc(-c4ccnc(-c5c(F)cccc5F)c4)c4c3C(=O)NC4)nc2)CC1 [Compound I-40, 4-[2-(2,6-difluorophenyl)-4-pyridyl]-7-[[5-(4-methylpiperazin-1-yl)-2-pyridyl]amino] isoindolin-1-one] | 1000 to 5000 nM
29 | CN1CCN(c2ccc(Nc3ccc(-c4cn[nH]c4)c4c3C(=O)NC4)nc2)CC1 [Compound I-84, 7-((5-(4-methylpiperazin-1-yl)pyridin-2-yl)amino)-4-(1H-pyrazol-4-yl)isoindolin-1-one] | < 1000 nM
30 | CN1CCN(c2ccc(Nc3ccc(-c4ccnc(N5CCCCC5)c4)c4c3C(=O)NC4)nc2)CC1 [Compound I-34, 7-[[5-(4-methylpiperazin-1-yl)-2-pyridyl]amino]-4-[2-(1-piperidyl)-4-pyridyl] isoindolin-1-one] | < 1000 nM
31 | CN1CCN(c2ccc(Nc3ccc(-c4cccnc4)c4c3C(=O)NC4)nc2)CC1 [Compound I-30, 7-[[5-(4-methylpiperazin-1-yl)-2-pyridyl]amino]-4-(3-pyridyl) isoindolin-1-one] | < 1000 nM
32 | O=C1NCc2c(-c3ccncc3)ccc(Nc3cc(C4CCOC4)n[nH]3)c21 (centres unmarked) [Compound I-36, 4-(4-pyridyl)-7-[(3-tetrahydrofuran-3-yl-1H-pyrazol-5-yl)amino] isoindolin-1-one] | < 1000 nM
33 | CN1CCN(c2ccc(Nc3ccc(-c4ccnc(C#Cc5ccn(C)n5)c4)c4c3C(=O)NC4)nc2)CC1 [Compound I-67, 4-(2-((1-methyl-1H-pyrazol-3-yl)ethynyl)pyridin-4-yl)-7-((5-(4-methylpiperazin-1-yl)pyridin-2-yl)amino) isoindolin-1-one] | < 1000 nM
34 | NC(=O)c1ncc(Nc2ccc(N3CCNCC3)cn2)c2c1CNC2=O [Compound I-8, 1-oxo-7-[(5-piperazin-1-yl-2-pyridyl)amino]-2,3-dihydropyrrolo [3,4-c]pyridine-4-carboxamide] | 1000 to 5000 nM
35 | CS(=O)(=O)c1ncc(Nc2ccc(N3CCNCC3)cn2)c2c1CNC2=O [Compound I-5, 4-methylsulfonyl-7-[(5-piperazin-1-yl-2-pyridyl)amino]-2,3-dihydropyrrolo [3,4-c]pyridin-1-one] | 1000 to 5000 nM
36 | CNC1CCN(c2ccc(Nc3ccc(-c4ccncc4)c4c3C(=O)NC4)nc2)CC1 [Compound I-53, 7-[[5-[4-(methylamino)-1-piperidyl]-2-pyridyl]amino]-4-(4-pyridyl) isoindolin-1-one] | < 1000 nM
37 | CN1CCN(c2ccc(Nc3ccc(-c4ccccc4)c4c3C(=O)NC4)nc2)CC1 [Compound I-29, 7-[[5-(4-methylpiperazin-1-yl)-2-pyridyl]amino]-4-phenyl-isoindolin-1-one] | < 1000 nM
38 | Cn1cc(-c2ncc(Nc3ccc(N4CCNCC4)cn3)c3c2CNC3=O)cn1 [Compound I-17, 4-(1-methylpyrazol-4-yl)-7-[(5-piperazin-1-yl-2-pyridyl)amino]-2,3-dihydropyrrolo [3,4-c]pyridin-1-one] | 1000 to 5000 nM
